Data from patent publication US11479587B2, “Cationic intrinsically disordered antimicrobial peptides” (priority 2016, dated 2022).
“And” between values parts separate entries of the source, which are not always exact repeats. Equal entries are not always repeated. Primed or numbered codes have the meaning given here. No end group written: not given here. FITC′ = fluorescein isothiocyanate

What was measured:
S. aureus ATCC 6538 = assay: CFU-assay, S. aureus-cidal activity; format: cell-based, Staphylococcus aureus; conditions: pH 5.5, 0.25% glucose
Experimental: (§1) Thus, within the present invention, the antimicrobial activity is generally measured in nutrient deficient 10 mM sodium phosphate buffer pH 5.5, containing 0.25% glucose, using the CFU-assay according to Steinberg and Lehrer, 1997 (supra), unless otherwise indicated. The CFU-assay allows determination of the minimal bactericidal concentration (MBC, e.g., MBC90 and MBC100; i.e. the concentration of compound required to achieve a specified reduction in bacterial cell number (microbial death or killing)).
Various peptides corresponding to repeat domains of hornerin (HR 1-11: HRNR 2606-2628; HR 1-17: HRNR 2656-2684 and HR 1-18: HRNR 2656-2677) were tested for P. aeruginosa ATCC 10145-cidal activity in 10 mM Na-phosphate buffer pH 5.5, containing 0.25% glucose by counting the numbers of colonies of surviving bacteria at serial, twofold dilutions from 300 μg/ml down to 19 ng/ml of each peptide (CFU-assay; Steinberg and Lehrer, 1997, Methods Mol. Biol. 78, 169-186).
Staphylococcus aureus is a major skin pathogen, which causes skin infections, in particular in atopic dermatitis. The sensitivity of S. aureus ATCC 6538 towards several CIDAMPs was assessed using the CFU-assay as above (see Example 1). HR 1-18, which lacks S. aureus.-bactericidal activity, is converted in a S. aureus-cidal peptide, when all His are replaced by Arg (HR 1-18 4H-4R; see Table 13 and FIG. 9). […] HR 1-18 4H-4R is rich in Ser and Arg and contains a single Leu residue. When this single Leu was replaced by Gly in S. aureus-cidal HR 1-18 4H-4R (forming HR 1-18 4H-4R/L-G), S. aureus-cidal activity was abolished at both pH 7.0 and pH 5.5 (see Table 13 and FIG. 9).

P. aeruginosa ATCC 10145 = assay: CFU-assay, P. aeruginosa-cidal activity; format: cell-based, Pseudomonas aeruginosa
[1] = test system: Candida albicans ATCC 24433; assay: CFU-assay, Candida albicans-cidal activity; format: cell-based
Experimental: as §1, with “killing)). […]” for “killing)).”
HR 1-17 affects C. albicans ATCC 24433 with highest activity at pH 5.5 in the absence of TSB in the medium (see Tables 12, 24). […] Furthermore, the substitution of any of the Arg residues by Gly leads to a dramatic reduction or loss of candidacidal activity (see Table 24).

C. albicans ATCC 928 = conditions: standard conditions at pH 7.4; activity at concentration <32 pg/ml
[2] = test system: methicillin-resistant S. aureus strain (ATCC 43300); format: cell-based, Staphylococcus aureus; conditions: ATCC 43300, 18 h
Experimental: Furthermore, sensitivity of a methicillin-resistant S. aureus strain (ATCC 43300) was investigated for palmitoylated CIDAMPs in a microtiter plate screening model, with incubation in Mueller-Hinton medium at 37° C. for 18 h using resazurin as a marker for cell viability.
A sample of each culture was then diluted 40-fold in fresh broth and incubated at 37° C. for 1.5-3 h. […] All the plates were covered and incubated at 37° C. for 18 h.
Inhibition of bacterial growth was determined using resazurin as a marker for cell viability. Resazurin was added to each well, at 0.001% final concentration, and plates incubated at 37° C. for 2 h. Fluorescence intensity was measured, using F (top read), ex 560/10 nm, em 590/10 nm, using a Tecan M1000 Pro monochromator plate reader.

Substance | MBC90 (S. aureus ATCC 6538) [µg/mL] | MBC100 (S. aureus ATCC 6538) [µg/mL] | MBC90 (P. aeruginosa ATCC 10145; pH 5.0, 0.25% glucose) [µg/mL] | MBC100 (P. aeruginosa ATCC 10145; pH 5.0, 0.25% glucose) [µg/mL] | MBC90 ([1]; pH 5.5, 0.25% glucose) [µg/mL] | MBC100 ([1]; pH 5.5, 0.25% glucose) [µg/mL] | MBC90 (P. aeruginosa ATCC 10145; pH 5.5, 0.25% glucose) | MBC100 (P. aeruginosa ATCC 10145; pH 5.5, 0.25% glucose) | also measured
FITC-GRHGSGLGHSSSHGQHGSGSGR ({FITC′}-GRHGSGLGHSSSHGQHGSGSGR) [FITC-HR 1-18] | 300 | >300 | 0.15 | 1.18 | 2.35 | 75 | – | – | –
GRHGSGLGHSSSHGQHGSGSGRSSSGGPY (Modified peptide derived from human hornerin (HR 1-17 R2681G)) | – | – | 0.0375 | 0.15 to 0.3 | – | – | – | – | MBC90 ([1]; pH 5.5, 1% TSB): 300 µg/mL; MBC100 ([1]; pH 5.5, 1% TSB): >300 µg/mL
GRRGGGGGRGGGRGGRGGGGGR (Modified peptide derived from human hornerin (HR 1-18 GR)) | >300 | >300 | <0.019 | 0.075 | – | – | <6 nM | 0.075 μg/ml and 0.04 μM | Antifungal activity, C. albcans ATCC90028 (C. albicans ATCC 928): I (I-inactive); Antifungal activity, C. neoformans ATCC 208821 (C. neoformans; standard conditions at pH 7.4, activity at concentration <32 pg/ml): I (I-inactive)
HAHSGHGQSTQRGSRTAGRRGSGH (Peptide derived from human filaggrin-2 (FLG-2 2082-2105)) [FLG-22082-2105] | – | – | – | – | – | – | <0.075 µg/mL | 0.038 µg/mL | reduction of candidacidal activity at pH 7.2 versus pH 5.5 (fold) ([1]; pH 7.2 vs pH 5.5): ~50 fold
HGSRSGQSSRGERHGSSSGSSSH (Peptide derived from human hornerin (HR 1-11)) | – | – | 0.075 | 2.35 | 9.38 | 150 | – | 2.35 µg/mL | MBC90 (P. aeruginosa ATCC 10145; pH 5.5, 1% TSB): 2.35 µg/mL; MBC100 (P. aeruginosa ATCC 10145; pH 5.5, 1% TSB): >300 µg/mL
SHHRHFRSHQCRR [LCE3C55 67] | – | – | – | – | – | – | – | – | MIC, C. neoformans ATCC 208821 (C. neoformans): ≥8 µg/mL; MIC, S. aureus ATCC 43300 [2]: ≥32 µg/mL
